# According to patent US10669269B2, “Substituted N-(1H-indazol-4-yl)imidazo[1,2-a]pyridine-3-carboxamide compounds as type III receptor tyrosine kinase inhibitors” (ARRAY BIOPHARMA INC., priority 2010, dated 2020):
# Counter-ions that a name gives are not always drawn.
# Tests used:
# [1] = biological target: T1, c-KIT (Homo sapiens, UniProt P10721); assay: c-KIT Cell-Based Assay (Example D); settings: averaged IC50; phospho-c-KIT in M-07e cells stimulated with 150 ng/ml recombinant human SCF; read-out: cKIT Cell ELISA IC50
# T1 construct: M-07e cells (human acute megakaryoblastic leukemia cell line) were serum-starved for 4 hours; endogenous in cells; host or cells: M-07e cells (human acute megakaryoblastic leukemia cell line)
# In short: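 M-07e cells serum-starved 4 h, treated 1 h with compound (9-point, 3-fold dilutions, top dose typically 5,000 nM) at 37° C, then stimulated 4 min with 150 ng/ml SCF. Phospho-c-KIT in lysates quantified by ELISA against a standard curve; IC50 from 4-parameter logistic fit as 50% of control.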
# [2] = biological target: T2, cFMS (Homo sapiens, UniProt P07333); assay: cFMS Cell-Based Assay (Example C); settings: averaged IC50; phospho-cFMS in THP-1 cells stimulated with 250 ng/mL recombinant human MCSF; read-out: cFMS Cell ELISA IC50
# T2 construct: THP-1 cells (human acute monocytic leukemia cell line) were serum-starved for 4 hours; endogenous in cells; host or cells: THP-1 cells (human acute monocytic leukemia cell line)
# In short: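 THP-1 cells serum-starved 4 h, then treated 1 h with compound (9-point, 3-fold series, top dose typically 5,000 nM) at 37 °C, then stimulated 1 min with 250 ng/mL recombinant human MCSF. Phospho-cFMS in lysates quantified by capture ELISA against a purified phospho-protein standard curve. IC50 at 50 percent of control, 4-parameter logistic fit.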
# [3] = biological target: T3, PDGFR beta (Homo sapiens, UniProt P09619); assay: Phospho PDGFR Cell Assay, sandwich ELISA (Example A); assay type: cell-based; settings: averaged IC50, PDGFR beta phosphorylation in HS27 human fibroblast cell line, PDGF-BB stimulation 5 minutes
# T3 construct: endogenous in cells; host or cells: HS27 human fibroblast cell line
# In short: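 HS27 human fibroblasts were pretreated with compound for 1 h, stimulated with PDGF-BB for 5 min, then lysed. Phospho-PDGFR beta was measured by sandwich ELISA, and IC50 was taken as the concentration giving 50 percent of control from a 4-parameter logistic fit.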
# [4] = biological target: T3, PDGFR beta; assay: Phospho PDGFR LICOR Cell Assay (Example B); assay type: cell-based; settings: averaged IC50; PDGFR beta phosphorylation in HS27 human fibroblast cell line, PDGF-BB stimulation 10 minutes, normalized to total ERK
# In short: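 HS27 human fibroblasts pretreated 1 h with compound, then stimulated 10 min with PDGF-BB. Fixed, permeabilized cells immunostained for phospho-PDGFRβ and total ERK and read by two-colour infrared fluorescence, with phospho signal normalized to ERK. IC50 = 50% of control from 4-parameter logistic fit.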
# T3 sequence (P09619 33-1106): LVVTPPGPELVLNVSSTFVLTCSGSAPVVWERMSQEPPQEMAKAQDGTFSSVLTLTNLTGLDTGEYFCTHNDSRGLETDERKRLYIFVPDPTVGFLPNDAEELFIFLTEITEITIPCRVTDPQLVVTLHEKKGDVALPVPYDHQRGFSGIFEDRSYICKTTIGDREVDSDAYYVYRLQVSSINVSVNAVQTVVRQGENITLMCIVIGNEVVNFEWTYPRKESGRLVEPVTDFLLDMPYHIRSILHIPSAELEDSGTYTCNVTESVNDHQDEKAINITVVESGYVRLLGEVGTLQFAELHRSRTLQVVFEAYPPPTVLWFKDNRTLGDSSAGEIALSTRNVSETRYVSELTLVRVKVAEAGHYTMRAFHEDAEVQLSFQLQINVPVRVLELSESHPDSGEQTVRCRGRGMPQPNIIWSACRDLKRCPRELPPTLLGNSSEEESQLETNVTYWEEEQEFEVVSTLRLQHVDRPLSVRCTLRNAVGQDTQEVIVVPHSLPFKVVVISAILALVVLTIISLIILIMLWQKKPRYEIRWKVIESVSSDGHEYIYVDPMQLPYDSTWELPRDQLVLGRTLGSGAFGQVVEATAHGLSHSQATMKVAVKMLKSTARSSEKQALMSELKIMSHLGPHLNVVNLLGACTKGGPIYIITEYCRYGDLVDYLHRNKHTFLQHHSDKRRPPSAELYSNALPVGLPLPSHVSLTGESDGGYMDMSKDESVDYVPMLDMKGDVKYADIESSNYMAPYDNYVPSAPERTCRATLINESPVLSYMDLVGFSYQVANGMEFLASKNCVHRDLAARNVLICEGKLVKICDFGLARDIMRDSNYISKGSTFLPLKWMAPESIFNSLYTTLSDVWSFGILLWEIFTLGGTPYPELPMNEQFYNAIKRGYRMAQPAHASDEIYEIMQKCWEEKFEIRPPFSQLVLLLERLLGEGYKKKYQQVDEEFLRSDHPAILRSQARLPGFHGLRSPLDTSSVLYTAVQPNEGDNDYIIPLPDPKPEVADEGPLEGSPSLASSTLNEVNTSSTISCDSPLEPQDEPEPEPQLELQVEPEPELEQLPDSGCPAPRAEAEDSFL
# T1 sequence (P10721 26-976): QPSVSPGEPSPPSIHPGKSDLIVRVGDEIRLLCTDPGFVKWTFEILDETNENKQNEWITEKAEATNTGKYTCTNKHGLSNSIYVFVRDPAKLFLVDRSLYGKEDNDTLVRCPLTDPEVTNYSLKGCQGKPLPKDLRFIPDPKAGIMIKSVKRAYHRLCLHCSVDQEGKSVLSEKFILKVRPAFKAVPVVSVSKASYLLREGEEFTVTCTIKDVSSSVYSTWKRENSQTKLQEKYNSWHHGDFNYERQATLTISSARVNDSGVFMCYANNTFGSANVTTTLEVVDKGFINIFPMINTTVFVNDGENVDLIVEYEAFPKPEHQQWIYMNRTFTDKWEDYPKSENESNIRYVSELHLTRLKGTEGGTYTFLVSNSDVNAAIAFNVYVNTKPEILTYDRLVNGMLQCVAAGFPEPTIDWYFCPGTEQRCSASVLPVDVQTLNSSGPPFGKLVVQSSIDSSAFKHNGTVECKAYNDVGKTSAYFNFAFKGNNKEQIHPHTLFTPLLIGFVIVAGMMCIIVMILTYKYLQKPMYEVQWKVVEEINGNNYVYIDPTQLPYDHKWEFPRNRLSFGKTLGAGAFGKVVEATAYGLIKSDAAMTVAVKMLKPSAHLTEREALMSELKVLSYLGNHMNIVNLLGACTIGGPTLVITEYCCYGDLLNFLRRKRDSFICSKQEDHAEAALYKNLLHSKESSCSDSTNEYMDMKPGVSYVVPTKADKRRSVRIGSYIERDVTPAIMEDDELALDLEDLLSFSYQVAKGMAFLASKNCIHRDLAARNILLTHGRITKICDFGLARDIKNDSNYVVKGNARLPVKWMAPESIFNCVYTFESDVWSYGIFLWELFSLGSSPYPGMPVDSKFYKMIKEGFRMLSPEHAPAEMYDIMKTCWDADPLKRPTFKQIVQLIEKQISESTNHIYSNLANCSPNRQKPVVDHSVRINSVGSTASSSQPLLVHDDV
# T2 sequence (P07333 20-972): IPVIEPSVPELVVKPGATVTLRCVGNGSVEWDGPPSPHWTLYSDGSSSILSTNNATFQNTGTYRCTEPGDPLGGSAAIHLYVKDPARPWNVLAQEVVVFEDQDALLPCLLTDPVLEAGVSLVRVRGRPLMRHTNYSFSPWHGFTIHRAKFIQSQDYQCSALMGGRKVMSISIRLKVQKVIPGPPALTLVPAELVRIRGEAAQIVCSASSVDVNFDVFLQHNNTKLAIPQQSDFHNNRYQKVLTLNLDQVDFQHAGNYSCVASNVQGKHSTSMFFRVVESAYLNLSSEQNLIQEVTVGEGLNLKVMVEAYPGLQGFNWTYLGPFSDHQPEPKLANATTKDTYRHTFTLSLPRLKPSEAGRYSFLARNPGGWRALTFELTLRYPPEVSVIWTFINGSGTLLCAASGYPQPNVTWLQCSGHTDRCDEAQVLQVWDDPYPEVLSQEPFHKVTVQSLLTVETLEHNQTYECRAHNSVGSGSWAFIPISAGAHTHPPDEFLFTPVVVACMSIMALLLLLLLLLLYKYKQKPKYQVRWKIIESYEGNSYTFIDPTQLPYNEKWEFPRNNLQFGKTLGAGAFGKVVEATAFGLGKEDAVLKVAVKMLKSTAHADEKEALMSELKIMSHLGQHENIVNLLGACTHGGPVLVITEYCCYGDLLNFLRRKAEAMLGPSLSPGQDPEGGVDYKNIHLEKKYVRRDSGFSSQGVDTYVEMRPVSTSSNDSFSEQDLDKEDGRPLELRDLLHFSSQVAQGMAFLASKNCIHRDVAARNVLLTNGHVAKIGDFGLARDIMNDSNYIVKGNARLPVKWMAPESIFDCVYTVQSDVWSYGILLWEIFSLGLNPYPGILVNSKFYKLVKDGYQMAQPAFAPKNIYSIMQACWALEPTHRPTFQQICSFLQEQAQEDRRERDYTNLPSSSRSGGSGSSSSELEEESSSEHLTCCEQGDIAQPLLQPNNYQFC
Structure (SMILES),IC50 [1],IC50 [2],IC50 [3],IC50 [4]
"Cc1nn(Cc2cccc(C3CC3)n2)c2cccc(NC(=O)c3cnc4cc(OCCN5CCOCC5)ccn34)c12 [Example 18, N-(1-((6-cyclopropylpyridin-2-yl)methyl)-3-methyl-1H-indazol-4-yl)-7-(2-morpholinoethoxy)imidazo[1,2-a]pyridine-3-carboxamide]",81.8 nM,10.2 nM,59.9 nM,674 nM
"Cc1nn(Cc2cccc(C(C)C)n2)c2cccc(NC(=O)c3cnc4cc(OCCN5CCN(C)[C@@H](C)C5)ccn34)c12 [Example 25, (S)-7-(2-(3,4-dimethylpiperazin-1-yl)ethoxy)-N-(1-((6-isopropylpyridin-2-yl)methyl)-3-methyl-1H-indazol-4-yl)imidazo[1,2-a]pyridine-3-carboxamide]",51.4 nM,23.8 nM,41.8 nM,18 nM
"Cc1nn(Cc2ccc(C(F)(F)F)cn2)c2cccc(NC(=O)c3cnc4cc(OCCN5CCN(C(C)C)CC5)ccn34)c12 [Example 44, 7-(2-(4-isopropylpiperazazin-1-yl)ethoxy)-N-(3-methyl-1-((5-(trifluoromethyl)pyridin-2-yl)methyl)-1H-indazol-4-yl)imidazo[1,2-a]pyridine-3-carboxamide]",63.4 nM,22.7 nM,116 nM,794 nM
"Cc1nn(Cc2cccc(C(F)(F)F)n2)c2cccc(NC(=O)c3cnc4cc(OCCN5CCN(C(C)C)CC5)ccn34)c12 [Example 45, 7-(2-(4-isopropylpiperazin-1-yl)ethoxy)-N-(3-methyl-1-((6-(trifluoromethyl)pyridin-2-yl)methyl)-1H-indazol-4-yl)imidazo[1,2-a]pyridine-3-carboxamide]",166 nM,13.4 nM,347 nM,113 nM
"Cc1nn(Cc2cccc(C3CC3)n2)c2cccc(NC(=O)c3cnc4cc(OCCN5CCN(C)CC5)ccn34)c12 [Example 47, N-(1-((6-cyclopropylpyridin-2-yl)methyl)-3-methyl-1H-indazol-4-yl)-7-(2-(4-methylpiperazin-1-yl)ethoxy)imidazo[1,2-a]pyridine-3-carboxamide]",48.5 nM,15.9 nM,74.9 nM,6.5 nM

# These reach a lower IC50 [1]. Values come first.
IC50 [1],IC50 [2],IC50 [3],IC50 [4],Structure (SMILES)
39.1 nM,9.4 nM,43.2 nM,247 nM,"Cc1nn(Cc2cccc(C3CC3)n2)c2cccc(NC(=O)c3cnc4cc(OCCN5CCN(C)C(C)(C)C5)ccn34)c12 [Example 19, N-(1-((6-cyclopropylpyridin-2-yl)methyl)-3-methyl-1H-indazol-4-yl)-7-(2-(3,3,4-trimethylpiperazin-1-yl)ethoxy)imidazo[1,2-a]pyridine-3-carboxamide]"
27.9 nM,13.7 nM,29.6 nM,63.2 nM,"Cc1nn(Cc2cccc(C3CC3)n2)c2cccc(NC(=O)c3cnc4cc(OCCN5CCN(C)[C@@H](C)C5)ccn34)c12 [Example 26, (S)—N-(1-((6-cyclopropylpyridin-2-yl)methyl)-3-methyl-1H-indazol-4-yl)-7-(2-(3,4-dimethylpiperazin-1-yl)ethoxy)imidazo[1,2-a]pyridine-3-carboxamide dihydrochloride]"
36.2 nM,13.8 nM,69.5 nM,72.6 nM,"Cc1nn(Cc2cccc(C3CC3)n2)c2cccc(NC(=O)c3cnc4cc(OCCN5CCN(C)[C@H](C)C5)ccn34)c12 [Example 27, (R)—N-(1-((6-cyclopropylpyridin-2-yl)methyl)-3-methyl-1H-indazol-4-yl)-7-(2-(3,4-dimethylpiperazin-1-yl)ethoxy)imidazo[1,2-a]pyridine-3-carboxamide dihydrochloride]"
35.5 nM,14 nM,5.9 nM,9.9 nM,"Cc1nn(Cc2cccc(C(C)C)n2)c2cccc(NC(=O)c3cnc4cc(OCCN5CCN(C)[C@H](C)C5)ccn34)c12 [Example 28, (R)-7-(2-(3,4-dimethylpiperazin-1-yl)ethoxy)-N-(1-((6-isopropylpyridin-2-yl)methyl)-3-methyl-1H-indazol-4-yl)imidazo[1,2-a]pyridine-3-carboxamide]"
30.7 nM,10.2 nM,18.3 nM,4.8 nM,"Cc1nn(Cc2cccc(C(C)C)n2)c2cccc(NC(=O)c3cnc4cc(OCCN5CCN(C)CC5)ccn34)c12 [Example 66, N-(1-((6-isopropylpyridin-2-yl)methyl)-3-methyl-1H-indazol-4-yl)-7-(2-(4-methylpiperazin-1-yl)ethoxy)imidazo[1,2-a]pyridine-3-carboxamide]"
30.1 nM,4.4 nM,22.2 nM,10.9 nM,"O=C(Nc1cccc2c1cnn2Cc1ccccc1)c1cnc2cc(OCC(O)CO)ccn12 (centres unmarked) [Example 91, N-(1-benzyl-1H-indazol-4-yl)-7-(2,3-dihydroxypropoxy)imidazo[1,2-a]pyridine-3-carboxamide]"
